Data: publication PMC7754455 (Journal of Clinical Pharmacology, 2020)

How the values were obtained:
[1] = Simcyp PBPK model parameter
[2] = Clinical DDI study part 1: plasma PK of molibresib alone and with itraconazole; conditions: with itraconazole vs alone, dose-normalized
[3] = Blood and plasma binding and permeability PBPK input parameters; conditions: PBPK model parameter, fixed to observed value
[4] = Clinical DDI study part 2: plasma PK of molibresib alone and with rifampicin; conditions: for AUC0‐∞ / Cmax / t1/2 / tmax: part 2 n = 14; for AUC0‐∞ / Cmax / t1/2: geometric mean (CVb%); for tmax: median (range)
[5] = preclinical findings; cited from earlier work
[6] = human urine; ref study BET115521; cited from earlier work
[7] = Safety and tolerability in the DDI study; conditions: one subject, part 1, appeared on day 6
[8] = with rifampicin vs alone, part 2

COc1ccc2c(c1)C(c1ccc(Cl)cc1)=N[C@@H](CC(N)=O)c1nnc(C)n1-2 [GSK3529246]
Compound type [1]: Monoprotic base
Log P [1]: 1.6
pKb [1]: 7.36
AUC Observed Geometric Mean Ratio (90%CI) ([2]; AUC 0 to infinity): 0.29 (0.26‐0.32)
Cmax Observed Geometric Mean Ratio (90%CI) [2]: 0.13 (0.11‐0.14)
Blood:plasma ratio [3]: 0.9
Fu plasma ([3]; fraction unbound): 0.2
increase in Cmax with rifampicin ([4]; part 2): 2 fold
AUC0‐∞ ([4]; molibresib 10 mg alone): 622 (26) ng·h/mL
Cmax ([4]; molibresib 10 mg alone): 49.0 (24) ng/mL
t1/2 ([4]; molibresib 10 mg alone): 10.0 (22) h
tmax ([4]; molibresib 10 mg alone): 2.0 (1.0‐4.1) h
AUC0‐∞ ([4]; molibresib 20 mg + rifampicin): 1140 (26) ng·h/mL
Cmax ([4]; molibresib 20 mg + rifampicin): 200 (24) ng/mL
t1/2 ([4]; molibresib 20 mg + rifampicin): 10.0 (24) h
tmax ([4]; molibresib 20 mg + rifampicin): 1.0 (0.53‐1.5) h
AUC0‐∞ Geometric Mean Ratio, Dosed Normalized (90%CI) [4, 8]: 0.917 (0.850‐0.989)
Cmax Geometric Mean Ratio, Dosed Normalized (90%CI) [4, 8]: 2.04 (1.78‐2.32)

CCNC(=O)C[C@@H]1N=C(c2ccc(Cl)cc2)c2cc(OC)ccc2-n2c(C)nnc21 [Molibresib]
preclinical adverse effects on male reproductive organs [5]: adverse effects on the testes including sperm retention and disorganized spermatogenesis
urinary excretion of unchanged drug [6]: approximately 9.5 % of the total dose administered

CCC(C)n1ncn(-c2ccc(N3CCN(c4ccc(OCC5COC(Cn6cncn6)(c6ccc(Cl)cc6Cl)O5)cc4)CC3)cc2)c1=O (stereo not drawn) [itraconazole]
adverse event considered related by the investigator [7]: mild elevations in liver enzymes
